Data reported in PubChem BioAssay (NCI).
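These data come from cells grown in 96-well plates and exposed to compound for 48 hours at five concentrations. Here, GI50 denotes the concentration required for 50% inhibition of growth. TGI denotes the concentration required for complete inhibition of growth.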

Experiments:
Assay in all cases: NCI tumour cell line growth inhibition, 48 h
786-0 renal = tested on: 786-0 renal
A498 renal = tested on: A498 renal
A549 NSCLC = tested on: A549 NSCLC
BT-549 breast = tested on: BT-549 breast
CAKI-1 renal = tested on: CAKI-1 renal
CCRF-CEM leukemia = tested on: CCRF-CEM leukemia
COLO 205 colon = tested on: COLO 205 colon
DU-145 prostate = tested on: DU-145 prostate
EKVX NSCLC = tested on: EKVX NSCLC
HCC-2998 colon = tested on: HCC-2998 colon
HCT-116 colon = tested on: HCT-116 colon
HCT-15 colon = tested on: HCT-15 colon
HOP-62 NSCLC = tested on: HOP-62 NSCLC
HOP-92 NSCLC = tested on: HOP-92 NSCLC
HS 578T breast = tested on: HS 578T breast
HT29 colon = tested on: HT29 colon
IGROV1 ovarian = tested on: IGROV1 ovarian
LOX IMVI melanoma = tested on: LOX IMVI melanoma
M14 melanoma = tested on: M14 melanoma
MCF7 breast = tested on: MCF7 breast
MDA-MB-231 breast = tested on: MDA-MB-231 breast
MDA-MB-435 = tested on: MDA-MB-435
NCI-H226 lung = tested on: NCI-H226 lung
NCI-H23 lung = tested on: NCI-H23 lung
NCI-H460 lung = tested on: NCI-H460 lung
NCI-H522 lung = tested on: NCI-H522 lung
NCI/ADR-RES ovarian = tested on: NCI/ADR-RES ovarian
OVCAR-3 ovarian = tested on: OVCAR-3 ovarian
OVCAR-4 ovarian = tested on: OVCAR-4 ovarian
OVCAR-5 ovarian = tested on: OVCAR-5 ovarian
OVCAR-8 ovarian = tested on: OVCAR-8 ovarian
PC-3 prostate = tested on: PC-3 prostate
RPMI-8226 leukemia = tested on: RPMI-8226 leukemia
RXF 393 renal = tested on: RXF 393 renal
SF-268 CNS = tested on: SF-268 CNS
SF-295 CNS = tested on: SF-295 CNS
SF-539 CNS = tested on: SF-539 CNS
SK-MEL-2 melanoma = tested on: SK-MEL-2 melanoma
SK-MEL-28 melanoma = tested on: SK-MEL-28 melanoma
SK-MEL-5 melanoma = tested on: SK-MEL-5 melanoma
SK-OV-3 ovarian = tested on: SK-OV-3 ovarian
SN12C renal = tested on: SN12C renal
SNB-19 CNS = tested on: SNB-19 CNS
SNB-75 CNS = tested on: SNB-75 CNS
SW-620 colon = tested on: SW-620 colon
T-47D breast = tested on: T-47D breast
U251 CNS = tested on: U251 CNS
UACC-257 melanoma = tested on: UACC-257 melanoma
UACC-62 melanoma = tested on: UACC-62 melanoma
UO-31 renal = tested on: UO-31 renal

Nc1ncc2ccc3c(ccn3C3CC(O)C(CO)O3)c2n1 (stereo not given)
GI50 (786-0 renal): > 100 µM
TGI (786-0 renal): > 100 µM
GI50 (A498 renal): 18.3 µM
TGI (A498 renal): > 100 µM
GI50 (A549 NSCLC): > 100 µM
TGI (A549 NSCLC): > 100 µM
GI50 (BT-549 breast): > 100 µM
TGI (BT-549 breast): > 100 µM
GI50 (CAKI-1 renal): > 100 µM
TGI (CAKI-1 renal): > 100 µM
GI50 (CCRF-CEM leukemia): > 100 µM
TGI (CCRF-CEM leukemia): > 100 µM
GI50 (COLO 205 colon): > 100 µM
TGI (COLO 205 colon): > 100 µM
GI50 (DU-145 prostate): > 100 µM
TGI (DU-145 prostate): > 100 µM
GI50 (EKVX NSCLC): > 100 µM
TGI (EKVX NSCLC): > 100 µM
GI50 (HCC-2998 colon): > 100 µM
TGI (HCC-2998 colon): > 100 µM
GI50 (HCT-116 colon): > 100 µM
TGI (HCT-116 colon): > 100 µM
GI50 (HCT-15 colon): > 100 µM
TGI (HCT-15 colon): > 100 µM
GI50 (HOP-62 NSCLC): > 100 µM
TGI (HOP-62 NSCLC): > 100 µM
GI50 (HOP-92 NSCLC): > 100 µM
TGI (HOP-92 NSCLC): > 100 µM
GI50 (HS 578T breast): > 100 µM
TGI (HS 578T breast): > 100 µM
GI50 (HT29 colon): > 100 µM
TGI (HT29 colon): > 100 µM
GI50 (IGROV1 ovarian): > 100 µM
TGI (IGROV1 ovarian): > 100 µM
GI50 (LOX IMVI melanoma): > 100 µM
TGI (LOX IMVI melanoma): > 100 µM
GI50 (M14 melanoma): > 100 µM
TGI (M14 melanoma): > 100 µM
GI50 (MCF7 breast): 87.2 µM
TGI (MCF7 breast): > 100 µM
GI50 (MDA-MB-231 breast): > 100 µM
TGI (MDA-MB-231 breast): > 100 µM
GI50 (MDA-MB-435): > 100 µM
TGI (MDA-MB-435): > 100 µM
GI50 (NCI-H226 lung): > 100 µM
TGI (NCI-H226 lung): > 100 µM
GI50 (NCI-H23 lung): > 100 µM
TGI (NCI-H23 lung): > 100 µM
GI50 (NCI-H460 lung): > 100 µM
TGI (NCI-H460 lung): > 100 µM
GI50 (NCI-H522 lung): > 100 µM
TGI (NCI-H522 lung): > 100 µM
GI50 (NCI/ADR-RES ovarian): > 100 µM
TGI (NCI/ADR-RES ovarian): > 100 µM
GI50 (OVCAR-3 ovarian): > 100 µM
TGI (OVCAR-3 ovarian): > 100 µM
GI50 (OVCAR-4 ovarian): > 100 µM
TGI (OVCAR-4 ovarian): > 100 µM
GI50 (OVCAR-5 ovarian): > 100 µM
TGI (OVCAR-5 ovarian): > 100 µM
GI50 (OVCAR-8 ovarian): > 100 µM
TGI (OVCAR-8 ovarian): > 100 µM
GI50 (PC-3 prostate): > 100 µM
TGI (PC-3 prostate): > 100 µM
GI50 (RPMI-8226 leukemia): > 100 µM
TGI (RPMI-8226 leukemia): > 100 µM
GI50 (RXF 393 renal): > 100 µM
TGI (RXF 393 renal): > 100 µM
GI50 (SF-268 CNS): > 100 µM
TGI (SF-268 CNS): > 100 µM
GI50 (SF-295 CNS): > 100 µM
TGI (SF-295 CNS): > 100 µM
GI50 (SF-539 CNS): > 100 µM
TGI (SF-539 CNS): > 100 µM
GI50 (SK-MEL-2 melanoma): > 100 µM
TGI (SK-MEL-2 melanoma): > 100 µM
GI50 (SK-MEL-28 melanoma): > 100 µM
TGI (SK-MEL-28 melanoma): > 100 µM
GI50 (SK-MEL-5 melanoma): > 100 µM
TGI (SK-MEL-5 melanoma): > 100 µM
GI50 (SK-OV-3 ovarian): > 100 µM
TGI (SK-OV-3 ovarian): > 100 µM
GI50 (SN12C renal): > 100 µM
TGI (SN12C renal): > 100 µM
GI50 (SNB-19 CNS): > 100 µM
TGI (SNB-19 CNS): > 100 µM
GI50 (SNB-75 CNS): 42.4 µM
TGI (SNB-75 CNS): > 100 µM
GI50 (SW-620 colon): > 100 µM
TGI (SW-620 colon): > 100 µM
GI50 (T-47D breast): > 100 µM
TGI (T-47D breast): > 100 µM
GI50 (U251 CNS): > 100 µM
TGI (U251 CNS): > 100 µM
GI50 (UACC-257 melanoma): > 100 µM
TGI (UACC-257 melanoma): > 100 µM
GI50 (UACC-62 melanoma): > 100 µM
TGI (UACC-62 melanoma): > 100 µM
GI50 (UO-31 renal): > 100 µM
TGI (UO-31 renal): > 100 µM
